Literature values in article PMC3807243 (Biochemical pharmacology, 2012).
Read-outs that look alike come from different tables or passages of the source.

Tested on: EphB4
Conditions: ref [38]–[40]

| IC50 (read-out: IC50 for inhibition of EphB4 binding) | Binding affinity for EphB4 | Sequence | IC50 (read-out: IC50 for inhibition of ephrin-B2 binding to EphB4) |
| --- | --- | --- | --- |
|  |  | TNYLFSPNGPIA | ~150 µM |
| ~0.015 µM | low nanomolar | TNYLFSPNGPIARAW [TNYL-RAW] |  |
